Assay results taken from PubChem BioAssay AID256 (DTP/NCI, 2004).
Where “and” joins values, the source holds several entries; their conditions need not be identical. Equal values may be shown once. Toxic doses and inconclusive results are not listed. Rule for the calls: active = survival T/C of 150% or more; inactive = T/C below 125% in these data.

Tested on: CD2F1 mice, L1210 leukemia ip, survival T/C
Assay: NCI In Vivo Anticancer Drug Screen. Data for tumor model L1210 Leukemia (intraperitoneal) in CD2F1 (CDF1) mice
Details: higher = longer survival
Procedure, shortened: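 Vehicle-treated tumor-bearing mice served as controls (C) for compound-treated mice (T). Reported figure is T divided by C.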

[1] = endpoint: mean survival time, dose: 100.0 mg/kg/injection, schedule: Q04DX003 (ip), vehicle: saline with Tween-80
[2] = endpoint: mean survival time, dose: 200.0 mg/kg/injection, schedule: Q04DX003 (ip), vehicle: saline with Tween-80
[3] = endpoint: mean survival time, dose: 400.0 mg/kg/injection, schedule: Q04DX003 (ip), vehicle: saline with Tween-80
[4] = endpoint: mean survival time, dose: 100.0 mg/kg/injection, schedule: Q01DX009 (ip), vehicle: saline with Tween-80
[5] = endpoint: mean survival time, dose: 200.0 mg/kg/injection, schedule: Q01DX009 (ip), vehicle: saline with Tween-80
[6] = endpoint: mean survival time, dose: 400.0 mg/kg/injection, schedule: Q01DX009 (ip), vehicle: saline with Tween-80
[7] = endpoint: mean survival time, dose: 12.5 mg/kg/injection, schedule: Q04DX003 (ip), vehicle: saline with Tween-80
[8] = endpoint: mean survival time, dose: 25.0 mg/kg/injection, schedule: Q04DX003 (ip), vehicle: saline with Tween-80
[9] = endpoint: mean survival time, dose: 50.0 mg/kg/injection, schedule: Q04DX003 (ip), vehicle: saline with Tween-80
[10] = endpoint: mean survival time, dose: 50.0 mg/kg/injection, schedule: Q01DX009 (ip), vehicle: Klucel (hydroxypropylcellulose) (HPC)
[11] = endpoint: mean survival time, dose: 100.0 mg/kg/injection, schedule: Q01DX001 (ip), vehicle: Klucel (hydroxypropylcellulose) (HPC)
[12] = endpoint: mean survival time, dose: 100.0 mg/kg/injection, schedule: Q01DX009 (ip), vehicle: Klucel (hydroxypropylcellulose) (HPC)
[13] = endpoint: mean survival time, dose: 200.0 mg/kg/injection, schedule: Q01DX001 (ip), vehicle: Klucel (hydroxypropylcellulose) (HPC)
[14] = endpoint: mean survival time, dose: 200.0 mg/kg/injection, schedule: Q01DX009 (ip), vehicle: Klucel (hydroxypropylcellulose) (HPC)

Measured: T/C

CN1CCCCCC1
inactive: [1] 100 % of control | [2] 111 % of control

COc1nc(NC2OC(CO)C(O)C(O)C2O)c(Br)c(=O)n1C (stereo unspecified)
inactive: endpoint: median survival time, dose: 12.5 mg/kg/injection, schedule: Q01DX005 (ip), vehicle: saline with Tween-80 101 % of control | endpoint: median survival time, dose: 25.0 mg/kg/injection, schedule: Q01DX005 (ip), vehicle: saline with Tween-80 101 % of control | endpoint: median survival time, dose: 50.0 mg/kg/injection, schedule: Q01DX005 (ip), vehicle: saline with Tween-80 100 % of control | endpoint: median survival time, dose: 100.0 mg/kg/injection, schedule: Q01DX005 (ip), vehicle: saline with Tween-80 102 % of control | endpoint: median survival time, dose: 200.0 mg/kg/injection, schedule: Q01DX005 (ip), vehicle: saline with Tween-80 96 % of control

CCC12CC(Br)C(C1)OC2=O (stereo unspecified)
inactive: endpoint: mean survival time, dose: 100.0 mg/kg/injection, schedule: Q01DX009 (ip), vehicle: other 96 % of control | endpoint: mean survival time, dose: 200.0 mg/kg/injection, schedule: Q01DX009 (ip), vehicle: other 101 % of control | endpoint: mean survival time, dose: 400.0 mg/kg/injection, schedule: Q01DX009 (ip), vehicle: other 100 % of control

O=C1C(c2ccccc2)=C(c2ccccc2)c2c(-c3ccccc3)ccc(-c3ccccc3)c21
inactive: [1] 89 % of control | [2] 100 % of control | [3] 94 % of control

CCCCCCC(/C=N\N=C\c1ccco1)=C\c1ccccc1
inactive: [4] 92 % of control | [1] 90 % of control | [5] 92 % of control | [2] 100 % of control | [6] 100 % of control | [3] 90 % of control

Cc1cccnc1NC(=O)/C=C/C(=O)O
inactive: [7] 96 % of control | [8] 101 % of control | [9] 104 % of control

O=C(O)c1cc([N+](=O)[O-])cc([N+](=O)[O-])c1
inactive: [1] 97 % of control | [2] 97 % of control | [3] 101 % of control

Nc1ccc(C(=O)CC(O)(C(F)(F)F)C(F)(F)F)cc1
inactive: [1] 113 % of control | [2] 111 % of control | [3] 113 % of control

CCOC(=O)N1N(C(=O)c2ccccc2)C(=O)CC1(C)C
inactive: endpoint: mean survival time, dose: 100.0 mg/kg/injection, schedule: Q01DX001 (ip), vehicle: other 95 % of control | endpoint: mean survival time, dose: 200.0 mg/kg/injection, schedule: Q01DX001 (ip), vehicle: other 116 % of control | endpoint: mean survival time, dose: 400.0 mg/kg/injection, schedule: Q01DX001 (ip), vehicle: other 98 % of control

CC(=O)C[n+]1ccc(C)cc1Sc1ccccc1C
inactive: endpoint: median survival time, dose: 25.0 mg/kg/injection, schedule: Q01DX009 (ip), vehicle: saline with Tween-80 98 % of control | endpoint: median survival time, dose: 50.0 mg/kg/injection, schedule: Q01DX009 (ip), vehicle: saline with Tween-80 96 % of control | endpoint: median survival time, dose: 100.0 mg/kg/injection, schedule: Q01DX009 (ip), vehicle: saline with Tween-80 98 % of control

CN(C)N(Cc1ccccc1)/N=N/c1nc[nH]c1C(N)=O
inactive: endpoint: mean survival time, dose: 50.0 mg/kg/injection, schedule: Q01DX001 (ip), vehicle: Klucel (hydroxypropylcellulose) (HPC) 107 % of control | [10] 105 % of control | [11] 98 % of control | [12] 96 % of control | [13] 90 % of control | [14] 107 % of control

Nc1nnc2c3[nH]cnc3ncn12
inactive: [11] 98 % of control | [13] 95 % of control | endpoint: mean survival time, dose: 400.0 mg/kg/injection, schedule: Q01DX001 (ip), vehicle: Klucel (hydroxypropylcellulose) (HPC) 104 % of control

N=C(N)SCc1ccccc1
inactive: endpoint: mean survival time, dose: 6.25 mg/kg/injection, schedule: Q04DX003 (ip), vehicle: saline with Tween-80 114 % of control | endpoint: mean survival time, dose: 12.5 mg/kg/injection, schedule: Q01DX009 (ip), vehicle: saline with Tween-80 94 % of control | [7] 100 % of control | endpoint: mean survival time, dose: 25.0 mg/kg/injection, schedule: Q01DX001 (ip), vehicle: saline 93 % of control | endpoint: mean survival time, dose: 25.0 mg/kg/injection, schedule: Q01DX009 (ip), vehicle: saline with Tween-80 96 % of control | [8] 112 % of control | endpoint: mean survival time, dose: 50.0 mg/kg/injection, schedule: Q01DX001 (ip), vehicle: saline 100 % of control | endpoint: mean survival time, dose: 50.0 mg/kg/injection, schedule: Q01DX009 (ip), vehicle: saline with Tween-80 93 % of control and 97 % of control | [9] 94 % of control and 97 % of control | endpoint: mean survival time, dose: 100.0 mg/kg/injection, schedule: Q01DX001 (ip), vehicle: saline 96 % of control | [1] 100 % of control | [5] 86 % of control | [2] 95 % of control

N#CSCc1ccc(O)c(C(=O)O)c1
inactive: endpoint: mean survival time, dose: 10.0 mg/kg/injection, schedule: Q01DX009 (ip), vehicle: saline with Tween-80 94 % of control | endpoint: mean survival time, dose: 20.0 mg/kg/injection, schedule: Q01DX009 (ip), vehicle: saline with Tween-80 105 % of control | endpoint: mean survival time, dose: 40.0 mg/kg/injection, schedule: Q01DX009 (ip), vehicle: saline with Tween-80 106 % of control

COc1ccc(C(O)c2ccccn2)cc1 (stereo unspecified)
inactive: [4] 103 % of control | [5] 97 % of control | [6] 90 % of control

Cc1c(Cl)cccc1NC(=O)Nc1ccc(F)c([N+](=O)[O-])c1
inactive: [10] 91 % of control | [12] 102 % of control | [14] 98 % of control

C1=C(CN2CCCCC2)COc2ccccc21
inactive: endpoint: mean survival time, dose: 37.5 mg/kg/injection, schedule: Q04DX003 (ip), vehicle: saline 107 % of control | endpoint: mean survival time, dose: 75.0 mg/kg/injection, schedule: Q01DX001 (ip), vehicle: saline 98 % of control | endpoint: mean survival time, dose: 75.0 mg/kg/injection, schedule: Q04DX003 (ip), vehicle: saline 104 % of control | endpoint: mean survival time, dose: 150.0 mg/kg/injection, schedule: Q01DX001 (ip), vehicle: saline 97 % of control | endpoint: mean survival time, dose: 150.0 mg/kg/injection, schedule: Q04DX003 (ip), vehicle: saline 104 % of control

c1ccc([P+](Cc2ccc(C[P+](c3ccccc3)(c3ccccc3)c3ccccc3)cc2)(c2ccccc2)c2ccccc2)cc1
inactive: endpoint: mean survival time, dose: 0.07 mg/kg/injection, schedule: Q01DX009 (ip), vehicle: saline sonified 94 % of control | endpoint: mean survival time, dose: 0.07 mg/kg/injection, schedule: Q04DX003 (ip), vehicle: saline with Tween-80 97 % of control | endpoint: mean survival time, dose: 0.15 mg/kg/injection, schedule: Q01DX009 (ip), vehicle: saline sonified 98 % of control | endpoint: mean survival time, dose: 0.15 mg/kg/injection, schedule: Q04DX003 (ip), vehicle: saline with Tween-80 93 % of control | endpoint: mean survival time, dose: 0.3 mg/kg/injection, schedule: Q01DX009 (ip), vehicle: saline sonified 93 % of control | endpoint: mean survival time, dose: 0.3 mg/kg/injection, schedule: Q04DX003 (ip), vehicle: saline with Tween-80 93 % of control | endpoint: mean survival time, dose: 0.6 mg/kg/injection, schedule: Q01DX009 (ip), vehicle: saline sonified 96 % of control | endpoint: mean survival time, dose: 0.6 mg/kg/injection, schedule: Q04DX003 (ip), vehicle: saline with Tween-80 98 % of control

CN(N=O)c1ccc(CC2CCc3ccccc32)cc1 (stereo unspecified)
inactive: [12] 93 % of control | [14] 98 % of control | endpoint: mean survival time, dose: 400.0 mg/kg/injection, schedule: Q01DX009 (ip), vehicle: Klucel (hydroxypropylcellulose) (HPC) 101 % of control
